Results published in ChEMBL document CHEMBL1137714, “Primaquine revisited six decades after its discovery” (Eur J Med Chem, 2009).

Experiments:
[1] = Tmax in po dosed human; type: ADME, organism-based; conditions: in vivo
Homo sapiens = species on record: Homo sapiens; experiment: Toxicity in human assessed as incidence of abdominal cramps at 22.5 to 30 mg/day; type: organism-based, Abdomen; conditions: in vivo
[2] = biological target: Acetylcholinesterase (Homo sapiens) (UniProt P22303); experiment: Inhibition of human erythrocyte AChE
Chain of Acetylcholinesterase (Homo sapiens) (P22303 whole entry): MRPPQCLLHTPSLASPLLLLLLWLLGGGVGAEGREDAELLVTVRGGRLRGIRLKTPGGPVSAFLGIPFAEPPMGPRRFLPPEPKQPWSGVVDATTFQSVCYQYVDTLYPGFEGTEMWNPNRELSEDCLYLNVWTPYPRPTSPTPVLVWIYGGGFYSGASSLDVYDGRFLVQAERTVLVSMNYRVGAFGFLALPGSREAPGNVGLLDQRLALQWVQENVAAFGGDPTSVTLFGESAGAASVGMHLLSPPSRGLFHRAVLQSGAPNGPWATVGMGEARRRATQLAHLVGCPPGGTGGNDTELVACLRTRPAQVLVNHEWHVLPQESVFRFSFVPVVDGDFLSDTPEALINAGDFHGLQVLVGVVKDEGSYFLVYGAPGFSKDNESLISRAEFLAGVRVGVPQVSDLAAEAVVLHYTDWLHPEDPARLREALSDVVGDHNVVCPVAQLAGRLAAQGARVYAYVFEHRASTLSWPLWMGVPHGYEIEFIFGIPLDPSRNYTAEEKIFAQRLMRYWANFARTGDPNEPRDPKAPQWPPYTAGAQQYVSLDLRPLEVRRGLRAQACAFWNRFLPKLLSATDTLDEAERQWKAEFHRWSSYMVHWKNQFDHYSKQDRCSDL

COc1cc(NC(C)CCCN)c2ncccc2c1 (stereo not drawn) [PRIMAQUINE]
Tmax [1]: 12 h
Activity (Homo sapiens): 10%
IC33 [2]: 30 µM
